Data on six substances can be found in patent US20240209034A1 (priority 2021, published 2024).

*: point of attachment. Biotin = O=C1N[C@H]2[C@H](CS[C@H]2CCCCC(=O)*)N1

One data set can be described thus: normal mouse serum. Conditions: 37° C.

For “Biotin-CAVPNLRGDLQVLAQKVCRTK-NH2 (cysteine pairing not given here)”, the cleaved bond entry in the data set “normal mouse serum” (up to 6 h) is reported as “C18-arginine19”.

On to “Biotin-CAVPNLRGDLQVLAQKVCRTK-NH2 (cysteine pairing not given here) [C1C18 DFBP]”, for which, in “normal mouse serum” (up to 6 h), the cleaved bond result was “C18-arginine19, 2 h”.

For the substance “Biotin-NCVPNLRGDLQVLAQKVCRDTKAD-NH2 (cysteine pairing not given here)”, the cleaved bond entry in “normal mouse serum” (up to 24 h) is listed as “Asn1-C2”.

In the case of “Biotin-NCVPNLRGDLQVLAQKVCRTK-NH2 (cysteine pairing not given here)”, in the data set “normal mouse serum” (up to 6 h), the cleaved bond result was “C18-arginine19, 2 h”.

Regarding “acetyl-NCVPhNLRGDLQVLADQKVCRDTKD-biotin [C2C18 Ph AD RDTKD DFBP]”, the “cell surface half-life (internalization)” value in the data set with BxPC-3 cells stood at 11.93 min.

Take biotin-NCVPhNLRGDLQVLAQKVCRDTKAD-amide: the cleaved bond result in “normal mouse serum” (up to 24 h) is recorded as “Asn1-C2”.
